Data reported in patent US6815189B1, “Gene from acremonium chrysogenum encoding a protein with cephalosporin C acetylhydrolase activity and methods of use of such gene” (Antibiotics, S.A.U., priority 1999, dated 2004).
Where two headings read alike, the source gives them in different places. Values belong to the compound of their own block, whether it stands above or below them.

Legend:
CPC-AH B [1] = target: T1, CPC-AH B (Hapsidospora chrysogena, UniProt A0A086SV17); experiment: Effect of metals and inhibitors on CPC-AH B activity (HPLC test of DAC formation from CPC); type: biochemical, Acremonium chrysogenum
T1 sequence (A0A086SV17 107-383): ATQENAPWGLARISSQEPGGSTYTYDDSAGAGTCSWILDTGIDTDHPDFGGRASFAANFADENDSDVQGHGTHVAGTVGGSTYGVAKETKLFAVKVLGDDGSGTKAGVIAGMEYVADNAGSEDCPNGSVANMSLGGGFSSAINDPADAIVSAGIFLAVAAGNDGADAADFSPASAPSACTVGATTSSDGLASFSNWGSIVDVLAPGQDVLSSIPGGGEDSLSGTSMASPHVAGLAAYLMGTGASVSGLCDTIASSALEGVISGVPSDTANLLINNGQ

CPC-AH B [2] = target: T1, CPC-AH B; experiment: In-vitro deacetylation by enzymatic extracts from E. coli JM109(DE3)/pT7B2.2 (processed CPC-AH B); type: biochemical, Acremonium chrysogenum; details: substrate 20 mM, 60 minutes at 37° C.
extracellular CPC-AH = details: cited from earlier work
[3] = final concentration of the ions 1 mM
[4] = metals 1 mM, pre-incubated 15 minutes at 4° C., NONE = 100

Compound: AgNO3
CPC-AH activity (%) (CPC-AH B [1]): 60%
Effect of metal ion on CPC-AH B activity (CPC-AH B [1]): inhibit activity to a greater or lesser extent

Compound: CC(=O)OCC1=C(C(=O)O)N2C(=O)[C@@H](NC(=O)CCC[C@@H](N)C(=O)O)[C@H]2SC1 [CPC, cephalosporin C]
Deacetylation of substrate (CPC-AH B [2]): detected appearance of the corresponding deacetylated derivatives
Km (extracellular CPC-AH): 20 mM

CPC-AH activity (%) (CPC-AH B [1]; [4]): 60%
Compound: O=S(=O)([O-])[O-].[Zn+2] [ZnSO4]
Effect of metal ion on CPC-AH B activity (CPC-AH B [1]; [3]): inhibit activity to a greater or lesser extent

Effect of metal ion on CPC-AH B activity (CPC-AH B [1]; [3]): stimulating effect
CPC-AH activity (%) (CPC-AH B [1]; [4]): 141%
Compound: O=S(=O)([O-])[O-].[Mg+2] [MgSO4]

CPC-AH activity (%) (CPC-AH B [1]; [4]): 49%
Compound: O=S(=O)([O-])[O-].[Fe+2] [FeSO4]
Effect of metal ion on CPC-AH B activity (CPC-AH B [1]; [3]): inhibit activity to a greater or lesser extent

Compound: CuSO4
CPC-AH activity (%) (CPC-AH B [1]): 64%
Effect of metal ion on CPC-AH B activity (CPC-AH B [1]): inhibit activity to a greater or lesser extent

Compound: CaCl2
CPC-AH activity (%) (CPC-AH B [1]): 147%
Effect of metal ion on CPC-AH B activity (CPC-AH B [1]): stimulating effect

CPC-AH activity (%) (CPC-AH B [1]; [4]): 77%
Compound: O=C([O-])[O-].[K+].[K+] [K2CO3]

CPC-AH activity (%) (CPC-AH B [1]; inhibitor 0.1 mM, NONE = 100): 91%
CPC-AH activity (%) (CPC-AH B [1]; inhibitor 1 mM, NONE = 100): 87%
CPC-AH activity (%) (CPC-AH B [1]; inhibitor 10 mM, NONE = 100): 86%
Compound: O=C(O)CN(CCN(CC(=O)O)CC(=O)O)CC(=O)O [EDTA]

Compound: O=S(=O)(F)Cc1ccccc1 [PMSF, phenylmethylsulphonyl fluoride]
Effect of inhibitor on CPC-AH B activity (CPC-AH B [1]): strong inhibitory effect

Effect of metal ion on CPC-AH B activity (CPC-AH B [1]; [3]): stimulating effect
CPC-AH activity (%) (CPC-AH B [1]; [4]): 140%
Compound: O=S(=O)([O-])[O-].[Mn+2] [MnSO4]

Compound: [Cl-].[Na+] [NaCl]
CPC-AH activity (%) (CPC-AH B [1]): 94%

Compound: CoSO4
CPC-AH activity (%) (CPC-AH B [1]): 80%

Compound: CC(=O)OCC1=C(C(=O)O)N2C(=O)[C@@H](N)[C@H]2SC1 [7-ACA, 7-aminocephalosporanic acid]
Deacetylation of substrate (CPC-AH B [2]): detected appearance of the corresponding deacetylated derivatives
